Results taken from US7063857B1, “Use of macrolide compounds for the treatment of dry eye” (Sucampo AG, priority 1999, dated 2006).

Experiments:
[1] = system: person having subjective symptoms of dry eye; experiment: Instillation of FK506 eye drop in a person with subjective symptoms of dry eye; assay type: in vivo, human; conditions: 0.06% eye drop (suspension), twice a day for two weeks, one patient
Source text: Using FK506 as the active ingredient in the present invention, a 0.06% eye drop (suspension) having the following formulation was used as a test drug. A suspension having the following formulation was produced in the same manner as in EP-A-0406791 (Example 6). [table]

healthy subjects = experiment: Tear film breakup time (BUT) after instillation in healthy subjects; assay type: in vivo, human; conditions: instilled four times a day for 7 days, healthy subjects (6 per group), right eye, difference between before and 8 days after instillation
Experimental: A suspension having the same formulation as in Example 1 was produced using FK506 as the active ingredient to give a 0.01% FK506 eye drop (suspension) and 0.1% FK506 eye drop (suspension) as test drugs. The base for the eye drops was used as the control drug. The above-mentioned test drugs and the control drug were instilled four times a day for 7 days to 18 healthy subjects (6 per group) at 8:00, 11:00, 14:00 and 17:00. The tear film breakup time (sec) of the right eye was measured before instillation and 8 days after instillation. The difference between before and after the instillation was calculated, and taken as the mean variation of the tear film breakup time. The tear film breakup time was measured according to the conventional method. After instillation of fluorescein, the tear film was formed on the surface of the eye by nictitation.

C=CC[C@@H]1/C=C(\C)C[C@H](C)C[C@H](OC)[C@H]2O[C@@](O)(C(=O)C(=O)N3CCCC[C@H]3C(=O)O[C@H](/C(C)=C/[C@@H]3CC[C@@H](O)[C@H](OC)C3)[C@H](C)[C@@H](O)CC1=O)[C@H](C)C[C@@H]2OC [FK506, 17-allyl-1,14-dihydroxy-12-[2-(4-hydroxy-3-methoxycyclohexyl)-1-methylvinyl]-23,25-dimethoxy-13,19,21,27-tetramethyl-11,28-dioxa-4-azatricyclo-[22.3 .1.0^4,9]octacos-18-ene-2,3,10,16-tetraone]
subjective symptoms of dry eye (sense of dryness, foreign body and grittiness) [1]: the subjective symptoms disappeared
Mean variation of tear film breakup time (healthy subjects; 0.01% FK506 eye drop (suspension)): +0.58 sec
Mean variation of tear film breakup time (healthy subjects; 0.1% FK506 eye drop (suspension)): +0.75 sec
